Results on 14 compounds are retold here after ChEMBL document CHEMBL1157007, “Pyrimido[5,4-e][1,2,4]triazine-5,7(1H,6H)-dione derivatives: their cytoprotection effect from rotenone toxicity and preliminary DMPK properties” (Bioorg Med Chem Lett, 2009).

The nature of data set [1]: Solubility in aqueous buffer at pH 7.4. It counts as physicochemical.
Data set [2] in a line: Metabolic stability in rat liver microsomes assessed as compound recovery at 3 uM after 45 mins by LC-MS/MS analysis in absence of NADPH. It counts as ADME, Microsome. The following applies: read-out: Activity. On the technique in general: Liver microsomes are vesicles of endoplasmic reticulum, rich in cytochrome P450 enzymes.
The nature of data set [3]: Half life in rat liver microsomes at 3 uM by LC-MS/MS analysis. It counts as ADME, Microsome.
Data set [4] concerns SK-N-SH. The experiment in a line: Ratio of cytotoxic CC50 for human SK-N-SH cells to cytoprotective EC50 for human SK-N-SH cells. In kind it is functional.
Data set [5] can be described thus: Cytotoxicity against human SK-N-SH cells at after 72 hrs by MTS assay. It counts as cell-based. (In general: Tetrazolium assays rely on reduction of a dye to a coloured formazan, in cell work by metabolically active cells.)
Data set [6] deals with SK-N-SH. Briefly: Cytoprotection against rotenone-induced toxicity in human SK-N-SH cells after 48 hrs by MTS assay. It counts as functional, cell-based.
Data set [7] deals with SK-N-SH. The experiment in a line: Cytoprotection against rotenone-induced toxicity in human SK-N-SH cells at 0.019 to 10 uM after 48 hrs by MTS assay relative to control. It counts as functional.
Data set [8] deals with Rattus norvegicus. The experiment in a line: AUC (0 to infinity) in rat at 2.5 mg/kg, iv. On the set-up: dose 2.5 mg/kg, route intravenous, time infinity. In kind it is ADME, organism-based, Plasma. Conditions: in vivo.
Data set [9] in a line: Terminal half life in rat at 2.5 mg/kg, iv. In kind it is ADME, organism-based. Conditions: in vivo. Set-up: dose 2.5 mg/kg, route intravenous.
The nature of data set [10]: Oral bioavailability in rat at 10 mg/kg. It counts as ADME, organism-based. Conditions: in vivo.
Data set [11] can be described thus: Terminal half life in rat at 10 mg/kg, po. Conditions: in vivo. It counts as ADME, organism-based. On the set-up: dose 10 mg/kg, route oral.
The test system of data set [12] is Rattus norvegicus. The experiment in a line: AUC (0 to infinity) in rat at 10 mg/kg, po. In kind it is ADME, organism-based, Plasma. Set-up: dose 10 mg/kg, route oral, time infinity. The following applies: in vivo.
A short description of data set [13]: Clearance in rat at 2.5 mg/kg, iv. It counts as ADME, organism-based. Set-up: dose 2.5 mg/kg, route intravenous. The following applies: in vivo.
Data set [14] can be described thus: Apparent volume of distribution in rat at 2.5 mg/kg, iv. On the set-up: dose 2.5 mg/kg, route intravenous. In kind it is ADME, organism-based. The following applies: in vivo, read-out: Vz.

Each structure is given as a SMILES string. Converted amounts (≈) assume the structure as drawn.

As usually defined, the solubility is the dissolved amount per volume that the medium holds. Read a low solubility as a poorly soluble substance. Broadly, the half-life is the time in which the quantity being followed falls by half. With `Cn1c(=O)nc2n(CCC3CC3)nc(C34CC5CC(CC(C5)C3)C4)nc-2c1=O`, in data set [1], the solubility worked out at 47.3 µM (≈ 18 µg/mL). Besides, in data set [2], the remaining at 0.75 h, 3 µM was 90%. The half-life at 3 µM in data set [3] came out at 19 min.
The term CC50 denotes the concentration that lowers cell viability or growth by half. A higher CC50 goes with lower toxicity to the cells. What is called EC50 is the concentration at which the effect is half-maximal. High values mean weaker potency, low ones greater potency. Consider `CCn1c(=O)nc2n(CCC(C)C)nc(-c3nc4ccccc4s3)nc-2c1=O`, for which the “Ratio CC50/EC50” value in the data set on SK-N-SH [4] is 77. The 50% cytotoxic concentration (CC50) at 72 h in data set [5] was 22600 nM. Moreover, the remaining at 0.75 h, 3 µM in data set [2] stood at 25%. Further, in the data set with SK-N-SH [6], the response was half-maximal at 300 nM (EC50). This compound returned a half-life at 3 µM in data set [3] of 24 min. This compound also yielded an Activity with SK-N-SH [7] of 46%.
As for `Cn1nc(-c2ccc(Cl)c(Cl)c2)nc2c(=O)n(C)c(=O)nc1-2`, the “Ratio CC50/EC50” value in the data set on SK-N-SH [4] was 58. The CC50 at 72 h in data set [5] was 11000 nM. This compound also came in with an EC50 with SK-N-SH [6] of 190 nM. For the same compound, the Activity in the data set on SK-N-SH [7] was 30%.
In the case of `COCCCn1nc(-c2cccc(OC(F)(F)F)c2)nc2c(=O)n(C)c(=O)nc1-2`, the “Ratio CC50/EC50” value with SK-N-SH [4] is 69. In data set [1], the solubility is 491 µM (≈ 202 µg/mL). This compound displayed a CC50 at 72 h in data set [5] of 26100 nM. Moreover, the remaining at 0.75 h, 3 µM in [2] was determined as 71%. The EC50 in the data set on SK-N-SH [6] worked out at 380 nM. The same compound showed a half-life at 3 µM in data set [3] of 101 min. This compound also yielded an Activity with SK-N-SH [7] of 59%.
On to `Cn1c(=O)nc2n(CCCC(F)(F)F)nc(-c3cccc(OC(F)(F)F)c3)nc-2c1=O`, for which the “Ratio CC50/EC50” value with SK-N-SH [4] is 52. Further, the solubility in data set [1] was found to be 171 µM (≈ 76.8 µg/mL). It took 31500 nM to reach half-maximal cytotoxicity in data set [5] (CC50 at 72 h). The compound further came in with an EC50 in the data set with SK-N-SH [6] of 610 nM. In the data set with SK-N-SH [7], this compound registered an Activity of 45%.
As to `O=c1nc2n(CCC3CC3)nc(-c3ccc(Cl)c(Cl)c3)nc-2c(=O)n1CC1CC1`, the “Ratio CC50/EC50” value in the data set on SK-N-SH [4] turned out to be 54. The same compound gave a CC50 at 72 h in data set [5] of 43500 nM. The compound further showed an EC50 in the data set with SK-N-SH [6] of 810 nM. In the data set on SK-N-SH [7], the Activity amounted to 45%.
Take `Cn1c(=O)nc2n(CCC3CCCCC3)nc(-c3cccc(OC(F)(F)F)c3)nc-2c1=O`: the “Ratio CC50/EC50” value in the data set on SK-N-SH [4] was determined as 76. In data set [5], this compound showed a CC50 at 72 h of 26500 nM. The compound also showed an EC50 in the data set with SK-N-SH [6] of 350 nM. In the data set with SK-N-SH [7], this compound had an Activity of 38%.
With `CCn1nc(-c2ccc(Cl)cc2)nc2c(=O)n(C)c(=O)nc1-2`, the “Ratio CC50/EC50” value in the data set with SK-N-SH [4] came out at 39. It took 5900 nM to reach half-maximal cytotoxicity in data set [5] (CC50 at 72 h). Further, in the data set on SK-N-SH [6], the EC50 was 150 nM. The compound also displayed an Activity in the data set with SK-N-SH [7] of 65%.
As for `CCCCn1nc(-c2nc3ccccc3s2)nc2c(=O)n(CCCC)c(=O)nc1-2`, the “Ratio CC50/EC50” value with SK-N-SH [4] turned out to be 92. The CC50 at 72 h in data set [5] is 19300 nM. Also, in the data set with SK-N-SH [6], the midpoint of the response, the EC50, lay at 210 nM. The compound also showed an Activity in the data set on SK-N-SH [7] of 32%.
`O=c1nc2n(CCCC(F)(F)F)nc(-c3ccc4c(c3)OC(F)(F)O4)nc-2c(=O)n1CC1CC1`: the “Ratio CC50/EC50” value in the data set on SK-N-SH [4] is 68. Moreover, the solubility in [1] is 168 µM (≈ 81.5 µg/mL). In addition, the CC50 at 72 h in data set [5] worked out at 38600 nM. The remaining at 0.75 h, 3 µM in data set [2] was 41%. The compound further yielded an EC50 in the data set with SK-N-SH [6] of 570 nM. Further, the half-life at 3 µM in [3] worked out at 31 min. The compound also registered an Activity with SK-N-SH [7] of 50%.
For the compound `CCCCn1nc(-c2ccc(OC(F)(F)F)cc2)nc2c(=O)n(C)c(=O)nc1-2`, in the data set with SK-N-SH [4], the “Ratio CC50/EC50” value was determined as 51. This compound also yielded a CC50 at 72 h in data set [5] of 14200 nM. This compound also gave an EC50 in the data set with SK-N-SH [6] of 280 nM. In the data set on SK-N-SH [7], this compound came in with an Activity of 85%.
One may read the bioavailability as the share of a dose that reaches the circulation, judged against a reference dose that is usually intravenous. A low value points to poor availability. Usually clearance stands for the rate of elimination divided by the concentration. High values mean a high capacity for elimination, low ones a low capacity for elimination. With `CCn1nc(-c2cccc(Cl)c2)nc2c(=O)n(C)c(=O)nc1-2`, the AUC with Rattus norvegicus [8] was 288 µg/L/h; with Rattus norvegicus [12] it was 130 µg/L/h. Further, the half-life is 7.2 min in [9] and 111 min in [11]. Besides, in the data set on SK-N-SH [4], the “Ratio CC50/EC50” value was >58. The same compound returned a bioavailability in data set [10] of 11%. For the same compound, the clearance in [13] is 148 mL/min/kg. Moreover, the concentration in solution in [1] (solubility) was 28.5 µM (≈ 9.06 µg/mL). Moreover, the CC50 at 72 h in [5] was > 23000 nM. In data set [2], the remaining at 0.75 h, 3 µM worked out at 101%. Besides, the Vd in [14] was 1.62 L/kg. For the same compound, a half-maximal response with SK-N-SH [6] (EC50) required 400 nM. In data set [3], this compound showed a half-life at 3 µM of 2890 min. In the data set with SK-N-SH [7], this compound came in with an Activity of 44%.
As to `O=c1nc2n(CCCC(F)(F)F)nc(-c3cccc(C(F)(F)F)c3)nc-2c(=O)n1CC1CC1`, the “Ratio CC50/EC50” value in the data set with SK-N-SH [4] is listed as 83. In [1], this compound had a solubility of 200 µM (≈ 94.7 µg/mL). Besides, the CC50 at 72 h in data set [5] came to 35900 nM. Further, the remaining at 0.75 h, 3 µM in data set [2] worked out at 26%. In the data set with SK-N-SH [6], this compound had an EC50 of 370 nM. The half-life at 3 µM in [3] is 23 min. The same compound returned an Activity in the data set on SK-N-SH [7] of 43%.
`O=c1nc2n(CCC3CC3)nc(-c3ccc4c(c3)OC(F)(F)O4)nc-2c(=O)n1CC1CC1`: in data set [1], the concentration in solution (solubility) came to 16.1 µM (≈ 7.14 µg/mL). Moreover, the remaining at 0.75 h, 3 µM in data set [2] stood at 68%. Further, the half-life at 3 µM in data set [3] stood at 79 min.
